Several values for one entry are separate records, joined by “and”; a condition that tells them apart may be missing. Equal values may be shown once.
Experiment: Accelerated and long term stability study of TTI-101 (Batch A, Batch B): HPLC assay, purity, impurities and water content after storage at 5° C., 25° C./60% RH, 30° C./65% RH or 40° C./75% RH
Format: physicochemical
Settings: for Impurities RRT 0.99: RRT of compound of formula (IV); for Impurities RRT 1.06: RRT of Compound 4
Experimental: Exemplary HPLC conditions: diluent was 0.1% trifluoroacetic acid (TFA) in acetonitrile, Mobile Phase A was 0.05% TFA in water, and Mobile Phase B was 0.05% TFA in acetonitrile, column (Agilent, Eclipse XDB-C18, 3.0×100 mm, particle size 1.8 μm), flow (0.425 mL/min), and detector (280 nm diode array).
Batch A was prepared analogously using Method 3 as described in Example 1. Batch B was prepared according to Method 5 as described in Example 1.
Samples of TTI-101 were stored at 5° C., 25° C./60% RH, 30° C./65% RH, or 40° C./75% RH. TTI-101 was stored in an LDPE bag enclosed with a Nylon cable tie and then transferred to another LDPE bag and enclosed with a Nylon cable tie. The enclosure was put into an HDPE bottle and closed with a polyethylene-lined polypropylene cap. The samples were stored under the above-identified conditions.
The samples were analyzed using HPLC with the exemplary conditions identified above. Relative retention time (RRT) for Compound 5 was about 0.83, Compound 4 was about 1.05-1.06, Compound 6 was about 1.15-1.17, and compound of formula (IV) was about 0.99.
• NA not applicable • NQ ≥0.02% and <0.05% • Avg average • Cmpd compound • — no peak • M month • RRT relative retention time

[1] = 5° C., 0 M, P1/P2, listed as Batch A
[2] = 5° C., 2 M, P1/P2, listed as Batch A
[3] = 5° C., 3 M, P1/P2, listed as Batch A
[4] = 5° C., 12 M, P1/P2, listed as Batch A
[5] = 25° C./60% RH, 0 M, P1/P2, listed as Batch A
[6] = 25° C./60% RH, 2 M, P1/P2, listed as Batch A

COc1ccc(S(=O)(=O)Nc2cc(-c3c(O)ccc4ccccc34)c(O)c3ccccc23)cc1 [TTI-101]
Assay (%) (5° C., 0 M, Avg): 99.8%
Impurities RRT 1.06 (Cmpd 4) (5° C., 0 M, Avg): NQ (≥0.02% and <0.05%)
Impurities RRT 1.17 (Cmpd 6) (5° C., 0 M, Avg): 0.13 area %
Impurities RRT 1.32 (5° C., 0 M, Avg): NQ (≥0.02% and <0.05%)
Impurities Total (5° C., 0 M, Avg): 0.1 area %
Purity (%) (5° C., 0 M, Avg): 99.8%
Water Content (%) (5° C., 0 M, Avg): <0.04%
Impurities RRT 0.99 (5° C., 0 M, Avg): NQ (≥0.02% and <0.05%)
Impurities RRT 1.32 (5° C., 0 M, P1/P2): NQ (≥0.02% and <0.05%)
Impurities Total (5° C., 0 M, P1/P2): 0.1 area %
Purity (%) (5° C., 0 M, P1/P2): 99.8%
Water Content (%) (5° C., 0 M, P1/P2): <0.04%
Assay (%) [1]: 99.9% and 99.7%
Impurities RRT 1.17 (Cmpd 6) [1]: 0.13 area % and 0.12 area %
Assay (%) (5° C., 2 M, Avg): 100.2%
Impurities RRT 1.16 (Cmpd 6) (5° C., 2 M, Avg): 0.08 area %
Impurities Total (5° C., 2 M, Avg): 0.1 area %
Purity (%) (5° C., 2 M, Avg): 99.9%
Water Content (%) (5° C., 2 M, Avg): <0.04%
Impurities RRT 0.99 (5° C., 2 M, Avg): NQ (≥0.02% and <0.05%)
Water Content (%) (5° C., 2 M, P1/P2): <0.04%
Assay (%) [2]: 99.7% and 100.7%
Purity (%) [2]: 99.9% and 100.0%
Assay (%) (5° C., 3 M, Avg): 99.9%
Impurities RRT 1.06 (Cmpd 4) (5° C., 3 M, Avg): 0.07 area %
Impurities RRT 1.16 (Cmpd 6) (5° C., 3 M, Avg): 0.22 area %
Impurities Total (5° C., 3 M, Avg): 0.3 area %
Purity (%) (5° C., 3 M, Avg): 99.7%
Water Content (%) (5° C., 3 M, Avg): <0.04%
Impurities RRT 1.16 (Cmpd 6) (5° C., 3 M, P1/P2): 0.22 area %
Impurities Total (5° C., 3 M, P1/P2): 0.3 area %
Purity (%) (5° C., 3 M, P1/P2): 99.7%
Water Content (%) (5° C., 3 M, P1/P2): <0.04%
Assay (%) [3]: 100.2% and 99.5%
Impurities RRT 1.06 (Cmpd 4) [3]: 0.06 area % and 0.07 area %
Assay (%) (5° C., 6 M, Avg): 99.4%
Impurities RRT 1.15 (Cmpd 6) (5° C., 6 M, Avg): 0.13 area %
Impurities Total (5° C., 6 M, Avg): 0.1 area %
Purity (%) (5° C., 6 M, Avg): 99.9%
Water Content (%) (5° C., 6 M, Avg): <0.04%
Impurities RRT 1.15 (Cmpd 6) (5° C., 6 M, P1/P2): 0.13 area %
Impurities Total (5° C., 6 M, P1/P2): 0.1 area %
Purity (%) (5° C., 6 M, P1/P2): 99.9%
Water Content (%) (5° C., 6 M, P1/P2): <0.04%
Assay (%) (5° C., 6 M, P1/P2, listed as Batch A): 100.6% and 98.3%
Assay (%) (5° C., 9 M, Avg): 99.6%
Impurities RRT 1.16 (Cmpd 6) (5° C., 9 M, Avg): 0.12 area %
Impurities Total (5° C., 9 M, Avg): 0.1 area %
Purity (%) (5° C., 9 M, Avg): 99.9%
Water Content (%) (5° C., 9 M, Avg): <0.04%
Assay (%) (5° C., 9 M, P1/P2): 99.6%
Impurities Total (5° C., 9 M, P1/P2): 0.1 area %
Purity (%) (5° C., 9 M, P1/P2): 99.9%
Water Content (%) (5° C., 9 M, P1/P2): <0.04%
Impurities RRT 1.16 (Cmpd 6) (5° C., 9 M, P1/P2, listed as Batch A): 0.12 area % and 0.11 area %
Assay (%) (5° C., 12 M, Avg): 99.2%
Impurities RRT 1.06 (Cmpd 4) (5° C., 12 M, Avg): NQ (≥0.02% and <0.05%)
Impurities RRT 1.16 (Cmpd 6) (5° C., 12 M, Avg): 0.39 area %
Impurities Total (5° C., 12 M, Avg): 0.4 area %
Purity (%) (5° C., 12 M, Avg): 99.6%
Water Content (%) (5° C., 12 M, Avg): 0.04%
Impurities RRT 1.06 (Cmpd 4) (5° C., 12 M, P1/P2): NQ (≥0.02% and <0.05%)
Impurities RRT 1.16 (Cmpd 6) (5° C., 12 M, P1/P2): 0.39 area %
Impurities Total (5° C., 12 M, P1/P2): 0.4 area %
Purity (%) (5° C., 12 M, P1/P2): 99.6%
Assay (%) [4]: 99.1% and 99.2%
Water Content (%) [4]: <0.04% and 0.04%
Assay (%) (5° C., 18 M, Avg): 98.5%
Impurities RRT 1.15 (Cmpd 6) (5° C., 18 M, Avg): 0.10 area %
Impurities Total (5° C., 18 M, Avg): 0.1 area %
Purity (%) (5° C., 18 M, Avg): 99.9%
Water Content (%) (5° C., 18 M, Avg): <0.04%
Impurities RRT 1.15 (Cmpd 6) (5° C., 18 M, P1/P2): 0.10 area %
Impurities Total (5° C., 18 M, P1/P2): 0.1 area %
Purity (%) (5° C., 18 M, P1/P2): 99.9%
Water Content (%) (5° C., 18 M, P1/P2): <0.04%
Impurities RRT 1.06 (5° C., 18 M, P1/P2): NQ (≥0.02% and <0.05%)
Assay (%) (5° C., 18 M, P1/P2, listed as Batch A): 97.9% and 99.2%
Assay (%) (5° C., 24 M, Avg): 99.7%
Impurities RRT 1.16 (Cmpd 6) (5° C., 24 M, Avg): 0.11 area %
Impurities Total (5° C., 24 M, Avg): 0.1 area %
Purity (%) (5° C., 24 M, Avg): 99.9%
Water Content (%) (5° C., 24 M, Avg): <0.04%
Impurities RRT 1.16 (Cmpd 6) (5° C., 24 M, P1/P2): 0.11 area %
Impurities Total (5° C., 24 M, P1/P2): 0.1 area %
Purity (%) (5° C., 24 M, P1/P2): 99.9%
Water Content (%) (5° C., 24 M, P1/P2): <0.04%
Impurities RRT 1.06 (5° C., 24 M, P1/P2): NQ (≥0.02% and <0.05%)
Assay (%) (5° C., 24 M, P1/P2, listed as Batch A): 100.2% and 99.3%
Assay (%) (25° C./60% RH, 0 M, Avg): 99.8%
Impurities RRT 1.06 (Cmpd 4) (25° C./60% RH, 0 M, Avg): NQ (≥0.02% and <0.05%)
Impurities RRT 1.17 (Cmpd 6) (25° C./60% RH, 0 M, Avg): 0.13 area %
Impurities RRT 1.32 (25° C./60% RH, 0 M, Avg): NQ (≥0.02% and <0.05%)
Impurities Total (25° C./60% RH, 0 M, Avg): 0.1 area %
Purity (%) (25° C./60% RH, 0 M, Avg): 99.8%
Water Content (%) (25° C./60% RH, 0 M, Avg): <0.04%
Impurities RRT 0.99 (25° C./60% RH, 0 M, Avg): NQ (≥0.02% and <0.05%)
Impurities RRT 1.32 (25° C./60% RH, 0 M, P1/P2): NQ (≥0.02% and <0.05%)
Impurities Total (25° C./60% RH, 0 M, P1/P2): 0.1 area %
Purity (%) (25° C./60% RH, 0 M, P1/P2): 99.8%
Water Content (%) (25° C./60% RH, 0 M, P1/P2): <0.04%
Assay (%) [5]: 99.9% and 99.7%
Impurities RRT 1.17 (Cmpd 6) [5]: 0.13 area % and 0.12 area %
Assay (%) (25° C./60% RH, 2 M, Avg): 99.1%
Impurities RRT 0.71 (25° C./60% RH, 2 M, Avg): 0.08 area %
Impurities RRT 0.92 (25° C./60% RH, 2 M, Avg): NQ (≥0.02% and <0.05%)
Impurities RRT 1.16 (Cmpd 6) (25° C./60% RH, 2 M, Avg): 0.05 area %
Impurities RRT 1.29 (25° C./60% RH, 2 M, Avg): NQ (≥0.02% and <0.05%)
Impurities Total (25° C./60% RH, 2 M, Avg): 0.1 area %
Purity (%) (25° C./60% RH, 2 M, Avg): 99.9%
Water Content (%) (25° C./60% RH, 2 M, Avg): <0.04%
Water Content (%) (25° C./60% RH, 2 M, P1/P2): <0.04%
Assay (%) [6]: 98.9% and 99.3%
Impurities Total [6]: 0.05 area % and 0.1 area %
Purity (%) [6]: 99.9% and 99.8%
Assay (%) (25° C./60% RH, 3 M, Avg): 99.5%
Impurities RRT 1.06 (Cmpd 4) (25° C./60% RH, 3 M, Avg): 0.07 area %
Impurities RRT 1.16 (Cmpd 6) (25° C./60% RH, 3 M, Avg): 0.22 area %
Impurities Total (25° C./60% RH, 3 M, Avg): 0.3 area %
Purity (%) (25° C./60% RH, 3 M, Avg): 99.7%
Water Content (%) (25° C./60% RH, 3 M, Avg): <0.04%
Impurities RRT 1.06 (Cmpd 4) (25° C./60% RH, 3 M, P1/P2): 0.07 area %
Impurities RRT 1.16 (Cmpd 6) (25° C./60% RH, 3 M, P1/P2): 0.22 area %
Impurities Total (25° C./60% RH, 3 M, P1/P2): 0.3 area %
